The values below come from patent publication US20110257233A1, “BENZOISOTHIAZOLONES AS INHIBITORS OF PHOSPHOMANNOSE ISOMERASE” (Sanford-Burnham Medical Research Institute, priority 2010, published 2011).

For this assay, the system named is Pseudomonas aeruginosa (ATCC 27853). Description: Microbial in vitro assay 614030. The class given is cell-based. To be noted: reference standard run with the assay. As for the experimental part:
The methods employed in this study were adapted from the scientific literature to maximize reliability and reproducibility. The reference standards were run as an integral part of each assay to ensure the validity of the results obtained. The assays were performed under conditions described below. The literature reference(s) for each assay are also provided as follows: Enza Di Modugno, Isabelle […]. […] Antimicrobial Agents Chemotherapy 3: 40-48; […]., Pursiano, […]. and Price, K. E. (1973) In Vitro Activity of the Tribactam GV 104326 against Gram-Positive, Gram-Negative, and Anaerobic Bacteria. Antimicrobial Agents and Chemotherapy, 38: 2362-2368, 1994; Enza Di Modugno, Isabelle […]. […] Antimicrobial Agents Chemotherapy 3: 40-48; and […]., Pursiano, […]. and Price, K. E. (1973) In vitro antibacterial activity of SM-7338, a carbapenem antibiotic with stability to dehydropeptidase I Antimicrobial Agents, Chemotherapy, 33 #2:215-222, 1989.

In the case of Gentamicin, the “CONCURRENT (reference compound data)” value came to 0.3 µg/mL.
